According to patent US20210323977A1, “PYRROLIDINYL AMIDE COMPOUNDS FOR THE TREATMENT OF AUTOIMMUNE DISEASE” (Hoffmann-La Roche Inc., priority 2018, published 2021):

Target: T1, human TLR8 (Homo sapiens, UniProt Q9NR97)
T1 sequence (Q9NR97 27-1041): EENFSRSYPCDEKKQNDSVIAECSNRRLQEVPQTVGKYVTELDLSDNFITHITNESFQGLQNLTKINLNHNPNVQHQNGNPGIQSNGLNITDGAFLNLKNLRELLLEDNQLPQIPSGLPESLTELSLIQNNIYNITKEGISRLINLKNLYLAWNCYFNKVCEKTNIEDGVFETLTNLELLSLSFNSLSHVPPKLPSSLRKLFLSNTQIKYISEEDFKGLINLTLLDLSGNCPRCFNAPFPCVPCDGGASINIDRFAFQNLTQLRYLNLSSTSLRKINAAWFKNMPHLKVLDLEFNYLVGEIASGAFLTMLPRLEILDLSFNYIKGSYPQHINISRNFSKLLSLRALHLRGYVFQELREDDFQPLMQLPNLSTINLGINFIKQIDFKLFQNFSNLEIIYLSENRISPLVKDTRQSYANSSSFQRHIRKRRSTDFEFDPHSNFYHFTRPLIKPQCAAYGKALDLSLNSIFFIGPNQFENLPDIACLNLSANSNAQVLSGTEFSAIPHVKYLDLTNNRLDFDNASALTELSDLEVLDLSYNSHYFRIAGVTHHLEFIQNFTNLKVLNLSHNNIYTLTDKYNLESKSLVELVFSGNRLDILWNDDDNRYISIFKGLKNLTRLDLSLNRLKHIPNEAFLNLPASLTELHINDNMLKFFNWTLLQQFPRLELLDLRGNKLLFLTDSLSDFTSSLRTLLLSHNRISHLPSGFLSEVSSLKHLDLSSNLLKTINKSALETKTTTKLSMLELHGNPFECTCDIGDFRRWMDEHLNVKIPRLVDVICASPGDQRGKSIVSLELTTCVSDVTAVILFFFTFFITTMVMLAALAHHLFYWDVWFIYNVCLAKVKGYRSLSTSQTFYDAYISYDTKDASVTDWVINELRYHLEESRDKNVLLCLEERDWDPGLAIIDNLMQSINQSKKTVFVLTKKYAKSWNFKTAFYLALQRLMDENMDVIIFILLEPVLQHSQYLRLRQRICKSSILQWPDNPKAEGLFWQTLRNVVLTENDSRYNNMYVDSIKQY
Test: HEK293-Blue-hTLR-8 cells assay
Format: cell-based
Conditions: HEK293-Blue-hTLR8 cells, SEAP reporter, R848 stimulation, 20 hrs
From the text: HEK293-Blue-hTLR-8 Cells Assay:
A stable HEK293-Blue-hTLR-8 cell line was purchased from InvivoGen (Cat. #: hkb-htlr8, San Diego, Calif., USA). These cells were originally designed for studying the stimulation of human TLR8 by monitoring the activation of NF-κB. A SEAP (secreted embryonic alkaline phosphatase) reporter gene was placed under the control of the IFN-β minimal promoter fused to five NF-κB and AP-1-binding sites. The SEAP was induced by activating NF-κB and AP-1 via stimulating HEK-Blue hTLR8 cells with TLR8 ligands. Therefore the reporter expression was declined by TLR8 antagonist under the stimulation of a ligand, such as R848, for incubation of 20 hrs. The cell culture supernatant SEAP reporter activity was determined using QUANTI-Blue™ kit (Cat. #: rep-qb1, Invivogen, San Diego, Ca, USA) at a wavelength of 640 nm, a detection medium that turns purple or blue in the presence of alkaline phosphatase.
HEK293-Blue-hTLR8 cells were incubated at a density of 250,000-450,000 cells/mL in a volume of 170 μL in a 96-well plate in Dulbecco's Modified Eagle's medium (DMEM) containing 4.5 g/L glucose, 50 U/mL penicillin, […], […], 2 mM L-glutamine, 10% (v/v) heat-inactivated fetal bovine serum with addition of 20 μL test compound in a serial dilution in the presence of final DMSO at 1% and 10 sL of 60 uM R848 in above DMEM, perform incubation under 37° C. in a CO2 incubator for 20 hrs. Then 20 μL of the supernatant from each well was incubated with 180 sL Quanti-blue substrate solution at 37° C. for 2 hrs and the absorbance was read at 620˜655 nm using a spectrophotometer. The signalling pathway that TLR8 activation leads to downstream NF-κB activation has been widely accepted, and therefore similar reporter assay was modified for evaluating TLR8 antagonist.

Row | SMILES | IC50 [nM]
1 | N#Cc1ccc(N2C[C@@H](C(F)(F)F)[C@H](C(=O)N[C@H]3CNC[C@H]3F)C2)c2cccnc12 [Example 47, Trans-1-(8-cyano-5-quinolyl)-N-[(3S,4R)-4-fluoropyrrolidin-3-yl]-4-(trifluoromethyl)pyrrolidine-3-carboxamide] | 404
2 | C[C@H]1CN(c2ccc(Cl)c3ncccc23)C[C@@H]1C(=O)NC1CCN(C)CC1 [Example 50, (3R,4R)-1-(8-chloro-5-quinolyl)-4-methyl-N-(1-methyl-4-piperidyl)pyrrolidine-3-carboxamide] | 147
3 | CN1CCCC(CNC(=O)C2CN(c3ccc(C#N)c4ncccc34)CC23CC3)C1 (centres unmarked) [Example 51, 5-(8-Cyano-5-quinolyl)-N-[(1-methyl-3-piperidyl)methyl]-5-azaspiro[2.4]heptane-7-carboxamide] | 398
4 | C[C@@H]1CN(c2ccc(C#N)c3ncccc23)C[C@H]1C(=O)N[C@H]1CNC[C@H]1F [Example 56, Trans-1-(8-cyano-5-quinolyl)-N-[(3S,4R)-4-fluoropyrrolidin-3-yl]-4-methyl-pyrrolidine-3-carboxamide] | 373
5 | C[C@H]1CN(c2ccc(C#N)c3nccnc23)C[C@@H]1C(=O)NC1CCN(C2CCNCC2)CC1 [Example 60, (3R,4R)-1-(8-cyanoquinoxalin-5-yl)-4-methyl-N-[1-(4-piperidyl)-4-piperidyl]pyrrolidine-3-carboxamide] | 48
